Measured values reported in US8268363B2, “Pharmaceutical combination preparation containing glycyrrhizine, zinc, and a compound comprising a thiol group or a group that is metabolized thereto” (priority 2003, dated 2012).

System: flu symptoms (colds, flu, viral infection of the upper respiratory tract)
Assay: clinical studies in flu symptoms: single substances and the combination
Type: in vivo, human
Conditions: single treatment; for effect on a scale of 1-10 (1 least effect, 10 maximum effect): daily dose divided in three doses; for average duration of the illness: daily dose divided in three doses (zinc 125 mg, N-acetylcysteine 2400 mg, glycyrrhicinic acid 1500 mg), without treatment normally 7 days
Experimental: In clinical studies each single substance was tested in flu symptoms (colds, flu, viral infection of the upper respiratory tract) whose duration without treatment normal lasted 7 days.
a) Zinc as a single treatment: • 125mg per day, divided in three doses:
b) N-Acetylcysteine • 2400 mg, divided in three doses;
c) Glycyrrhicinic acid • 1500 mg, divided in three doses;
The average duration of illness with the treatment combination of all three of the above substances a), b), and c) in the majority of the cases the duration of the illness was shortened to 24 hours or less. […] 24 hours later, 85% of the patients were completely without symptoms and able to return to work. The maximum duration in a few cases lasted 5 days.
Further, 20 children between the ages of 7 to 15 years old were treated with half of the doses from the combination of a) b) and c). The results were the same as for the adults.

| Molecule | effect on a scale of 1-10 (1 least effect, 10 maximum effect) | average duration of the illness |
| --- | --- | --- |
| Glycyrrhicinic acid | 2 | 5.0 days |
| Zinc | 2 | 5 days |
| CC(=O)N[C@@H](CS)C(=O)O [N-Acetylcysteine] | 5 | 4 days |
